Measurements as given in patent US9682965B2, “Fumagillol heterocyclic compounds and methods of making and using same” (Zafgen, Inc., priority 2015, dated 2017).
Counter-ions that a name gives are not always drawn.

What follows are molecules tested on Diet Induced Obese (DIO) C57BL/6 mice (assay: 10 day DIO mouse model (body weight, food intake, hematology, blood chemistry)). Conditions: 240 h; DIO mouse, 0.3 mpk sc, once a day for 10 days; read-out: DIO Mouse 10-day weight loss vs vehicle.
Assay type: in vivo
Excerpt: The objective of this study design was to investigate the efficacy of disclosed compounds in a 10 day DIO mouse model. Effects on body weight, food intake, hematology and blood chemistry were the primary readouts of this study design. […] Mice were fed Research Diets D12492 (60% Kcal fat, 20% Kcal carbohydrate and 20% protein) and provided water ad libitum. DIO mice were received and housed in the facility for approximately two weeks prior to the start of test article administration. On Day −4 or −3, mice were randomized into study groups based on body weight and body weights were continued to be recorded daily for the duration of the study. Daily food intake was assessed starting on Study Day −2 by weighing of the food with hopper together to avoid loss of food in transfer.
Compounds were formulated into a 100% DMSO stock (at 9 mg/mL) prior to the start, and further diluted into the target working concentration using the vehicle of 10% DMSO in water. Prior to test article administration, starting on Day −3 a dosing acclimation occured with all animals receiving a subcutaneous injection of vehicle (10% DMSO) only for 3 days. Starting on Day 1, test compounds or vehicle were administered based on individual body weight, subcutaneously, once a day for 10 days. All mice were sacrificed on Day 11, 24 hours following the final dosing on Day 10. After sacrifice, whole blood was collected and analyzed for hematology and blood chemistry parameters.
Compounds were tested vs. vehicle at various doses (1.0, 0.5, 0.3, 0.1, 0.03 mpk sc (mg per kg animal weight delivered subcutaneously), and the results are shown in Table 2 below.

Structure (SMILES)	inhibition in vivo at 0.3 mg/kg
CO[C@H]1CCN(CCC2CN(C(=O)O[C@@H]3CC[C@]4(CO4)[C@@H]([C@@]4(C)O[C@@H]4CC=C(C)C)[C@@H]3OC)C2)C1 [Example 25, (3R,4S,5S,6R)-5-methoxy-4-((2R,3R)-2-methyl-3-(3-methylbut-2-enyl)oxiran-2-yl)-1-oxaspiro[2.5]octan-6-yl 3-(2-((S)-3-methoxypyrrolidin-1-yl)ethyl)azetidine-1-carboxylate]	4.8%
CO[C@@H]1[C@H](OC(=O)N2CC(OC(=O)NC(C)C)C2)CC[C@]2(CO2)[C@H]1[C@@]1(C)O[C@@H]1CC=C(C)C [Example 76, (3R,4S,5S,6R)-5-methoxy-4-((2R,3R)-2-methyl-3-(3-methylbut-2-enyl)oxiran-2-yl)-1-oxaspiro[2.5]octan-6-yl 3-(isopropylcarbamoyloxy)azetidine-1-carboxylate]	15.4%
CCN(CC)CC1CN(C(=O)O[C@@H]2CC[C@]3(CO3)[C@@H]([C@@]3(C)O[C@@H]3CC=C(C)C)[C@@H]2OC)CCO1 (stereo partly drawn) [Example 44, (3R,4S,5S,6R)-5-methoxy-4-((2R,3R)-2-methyl-3-(3-methylbut-2-enyl)oxiran-2-yl)-1-oxaspiro[2.5]octan-6-yl 2-((diethylamino)methyl)morpholine-4-carboxylate formate]	2.1%
CO[C@@H]1[C@H](OC(=O)N2CC(COC(=O)N(C)C)C2)CC[C@]2(CO2)[C@H]1[C@@]1(C)O[C@@H]1CC=C(C)C [Example 70, (3R,4S,5S,6R)-5-methoxy-4-((2R,3R)-2-methyl-3-(3-methylbut-2-enyl)oxiran-2-yl)-1-oxaspiro[2.5]octan-6-yl 3-((dimethylcarbamoyloxy)methyl)azetidine-1-carboxylate]	14.5%
CO[C@@H]1[C@H](OC(=O)N2CC[C@@H](CCN3CC(F)(F)C3)C2)CC[C@]2(CO2)[C@H]1[C@@]1(C)O[C@@H]1CC=C(C)C [Example 58, (R)-((3R,4S,5S,6R)-5-methoxy-4-((2R,3R)-2-methyl-3-(3-methylbut-2-enyl)oxiran-2-yl)-1-oxaspiro[2.5]octan-6-yl) 3-(2-(3,3-difluoroazetidin-1-yl)ethyl)pyrrolidine-1-carboxylate]	15.8%
CO[C@@H]1[C@H](OC(=O)N2CC(CCN3CCN(S(C)(=O)=O)CC3)C2)CC[C@]2(CO2)[C@H]1[C@@]1(C)O[C@@H]1CC=C(C)C [Example 15, (3R,4S,5S,6R)-5-methoxy-4-((2R,3R)-2-methyl-3-(3-methylbut-2-enyl)oxiran-2-yl)-1-oxaspiro[2.5]octan-6-yl 3-(2-(4-(methylsulfonyl)piperazin-1-yl)ethyl)azetidine-1-carboxylate]	0.1%
CO[C@@H]1[C@H](OC(=O)N2CC(CCN3[C@@H]4CC[C@H]3COC4)C2)CC[C@]2(CO2)[C@H]1[C@@]1(C)O[C@@H]1CC=C(C)C [Example 31, (3R,4S,5S,6R)-5-methoxy-4-((2R,3R)-2-methyl-3-(3-methylbut-2-enyl)oxiran-2-yl)-1-oxaspiro[2.5]octan-6-yl 3-(2-((1R,5S)-3-oxa-8-azabicyclo[3.2.1]octan-8-yl)ethyl)azetidine-1-carboxylate]	4.2%
CO[C@@H]1[C@H](OC(=O)N2CC(CCN3CCC(F)CC3)C2)CC[C@]2(CO2)[C@H]1[C@@]1(C)O[C@@H]1CC=C(C)C [Example 30, (3R,4S,5S,6R)-5-methoxy-4-((2R,3R)-2-methyl-3-(3-methylbut-2-enyl)oxiran-2-yl)-1-oxaspiro[2.5]octan-6-yl 3-(2-(4-fluoropiperidin-1-yl)ethyl)azetidine-1-carboxylate]	9.1%
CO[C@@H]1[C@H](OC(=O)N2CC(CCN3CCC(C)(C#N)CC3)C2)CC[C@]2(CO2)[C@H]1[C@@]1(C)O[C@@H]1CC=C(C)C [Example 29, (3R,4S,5S,6R)-5-methoxy-4-((2R,3R)-2-methyl-3-(3-methylbut-2-enyl)oxiran-2-yl)-1-oxaspiro[2.5]octan-6-yl 3-(2-(4-cyano-4-methylpiperidin-1-yl)ethyl)azetidine-1-carboxylate]	10.7%
CO[C@@H]1[C@H](OC(=O)N2CC(CCN3CCS(=O)(=O)CC3)C2)CC[C@]2(CO2)[C@H]1[C@@]1(C)O[C@@H]1CC=C(C)C [Example 10, (3R,4S,5S,6R)-5-methoxy-4-((2R,3R)-2-methyl-3-(3-methylbut-2-enyl)oxiran-2-yl)-1-oxaspiro[2.5]octan-6-yl 3-(2-thiomorpholinoethyl)azetidine 2,2-dioxide-1-carboxylate]	1.8%
CO[C@@H]1[C@H](OC(=O)N2CC(CCN3CC(C)(C(=O)N(C)C)C3)C2)CC[C@]2(CO2)[C@H]1[C@@]1(C)O[C@@H]1CC=C(C)C [Example 20, (3R,4S,5S,6R)-5-methoxy-4-((2R,3R)-2-methyl-3-(3-methylbut-2-enyl)oxiran-2-yl)-1-oxaspiro[2.5]octan-6-yl 3-(2-(3-(dimethylcarbamoyl)-3-methylazetidin-1-yl)ethyl)azetidine-1-carboxylate]	2.1%
CCN(CC)CCNC(=O)OCC1CN(C(=O)O[C@@H]2CC[C@]3(CO3)[C@@H]([C@@]3(C)O[C@@H]3CC=C(C)C)[C@@H]2OC)C1 [Example 68, (3R,4S,5S,6R)-5-methoxy-4-((2R,3R)-2-methyl-3-(3-methylbut-2-en-1-yl)oxiran-2-yl)-1-oxaspiro[2.5]octan-6-yl 3-((((2-(diethylamino)ethyl)carbamoyl)oxy)methyl)azetidine-1-carboxylate]	0%
CO[C@@H]1[C@H](OC(=O)N2CC(CCN3CCC(C#N)(C#N)CC3)C2)CC[C@]2(CO2)[C@H]1[C@@]1(C)O[C@@H]1CC=C(C)C [Example 36, (3R,4S,5S,6R)-5-methoxy-4-((2R,3R)-2-methyl-3-(3-methylbut-2-enyl)oxiran-2-yl)-1-oxaspiro[2.5]octan-6-yl 3-(2-(4,4-dicyanopiperidin-1-yl)ethyl)azetidine-1-carboxylate]	11.2%
CO[C@@H]1[C@H](OC(=O)N2CC(CCN3CC[C@@H](F)C3)C2)CC[C@]2(CO2)[C@H]1[C@@]1(C)O[C@@H]1CC=C(C)C [Example 27, (3R,4S,5S,6R)-5-methoxy-4-((2R,3R)-2-methyl-3-(3-methylbut-2-enyl)oxiran-2-yl)-1-oxaspiro[2.5]octan-6-yl 3-(2-((R)-3-fluoropyrrolidin-1-yl)ethyl)azetidine-1-carboxylate]	13.3%
CO[C@@H]1[C@H](OC(=O)N2CC(CCC3CCN(CC(F)F)CC3)C2)CC[C@]2(CO2)[C@H]1[C@@]1(C)O[C@@H]1CCC(C)C [Example 128, (3R,4S,5S,6R)-4-((2R,3R)-3-isopentyl-2-methyloxiran-2-yl)-5-methoxy-1-oxaspiro[2.5]octan-6-yl 3-(2-(1-(2,2-difluoroethyl)piperidin-4-yl)ethyl)azetidine-1-carboxylate]	15.2%
CO[C@@H]1[C@H](OC(=O)N2CC(=CCN3CCOCC3)C2)CC[C@]2(CO2)[C@H]1[C@@]1(C)O[C@@H]1CC=C(C)C [Example 96, (3R,4S,5S,6R)-5-methoxy-4-((2R,3R)-2-methyl-3-(3-methylbut-2-enyl)oxiran-2-yl)-1-oxaspiro[2.5]octan-6-yl 3-(2-morpholinoethylidene)azetidine-1-carboxylate]	18.6%
